Results taken from PubChem BioAssay (NCI).
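Tested at 5 concentrations; 48 h exposure; 96-well plates; endpoints linearly interpolated, else capped at highest concentration. Here, GI50 denotes the concentration required for 50% inhibition of growth. Definition used: TGI = concentration required for complete inhibition of growth.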

Assays:
Test in all cases: DTP human tumour cell line panel, 48 h
786-0 renal = tested on: 786-0 renal
A498 renal = tested on: A498 renal
A549 NSCLC = tested on: A549 NSCLC
ACHN renal = tested on: ACHN renal
BT-549 breast = tested on: BT-549 breast
CAKI-1 renal = tested on: CAKI-1 renal
CCRF-CEM leukemia = tested on: CCRF-CEM leukemia
COLO 205 colon = tested on: COLO 205 colon
DU-145 prostate = tested on: DU-145 prostate
EKVX NSCLC = tested on: EKVX NSCLC
HCC-2998 colon = tested on: HCC-2998 colon
HCT-116 colon = tested on: HCT-116 colon
HCT-15 colon = tested on: HCT-15 colon
HL-60(TB) leukemia = tested on: HL-60(TB) leukemia
HOP-62 NSCLC = tested on: HOP-62 NSCLC
HOP-92 NSCLC = tested on: HOP-92 NSCLC
HS 578T breast = tested on: HS 578T breast
HT29 colon = tested on: HT29 colon
IGROV1 ovarian = tested on: IGROV1 ovarian
K-562 leukemia = tested on: K-562 leukemia
KM12 colon = tested on: KM12 colon
M14 melanoma = tested on: M14 melanoma
MALME-3M melanoma = tested on: MALME-3M melanoma
MCF7 breast = tested on: MCF7 breast
MDA-MB-231 breast = tested on: MDA-MB-231 breast
MDA-MB-435 = tested on: MDA-MB-435
MOLT-4 leukemia = tested on: MOLT-4 leukemia
NCI-H226 lung = tested on: NCI-H226 lung
NCI-H23 lung = tested on: NCI-H23 lung
NCI-H460 lung = tested on: NCI-H460 lung
NCI-H522 lung = tested on: NCI-H522 lung
NCI/ADR-RES ovarian = tested on: NCI/ADR-RES ovarian
OVCAR-4 ovarian = tested on: OVCAR-4 ovarian
OVCAR-5 ovarian = tested on: OVCAR-5 ovarian
OVCAR-8 ovarian = tested on: OVCAR-8 ovarian
PC-3 prostate = tested on: PC-3 prostate
RPMI-8226 leukemia = tested on: RPMI-8226 leukemia
RXF 393 renal = tested on: RXF 393 renal
SF-268 CNS = tested on: SF-268 CNS
SF-295 CNS = tested on: SF-295 CNS
SF-539 CNS = tested on: SF-539 CNS
SK-MEL-2 melanoma = tested on: SK-MEL-2 melanoma
SK-MEL-28 melanoma = tested on: SK-MEL-28 melanoma
SK-OV-3 ovarian = tested on: SK-OV-3 ovarian
SN12C renal = tested on: SN12C renal
SNB-19 CNS = tested on: SNB-19 CNS
SNB-75 CNS = tested on: SNB-75 CNS
SR leukemia = tested on: SR leukemia
SW-620 colon = tested on: SW-620 colon
T-47D breast = tested on: T-47D breast
TK-10 renal = tested on: TK-10 renal
U251 CNS = tested on: U251 CNS
UACC-257 melanoma = tested on: UACC-257 melanoma
UACC-62 melanoma = tested on: UACC-62 melanoma
UO-31 renal = tested on: UO-31 renal

With `O=c1oc2ccc(-c3ccc(F)cc3F)cc2c(=O)n1-c1cccc(C(F)(F)F)c1` as the molecule, how does the GI50 (786-0 renal) read?
Its GI50 is 1770 nM.

What about the TGI (786-0 renal) of the same molecule?
Its TGI is 9.55 µM.

What about the GI50 (A498 renal) of the same molecule?
Its GI50 is 902 nM.

And the TGI (A498 renal)?
Its TGI is 2380 nM.

What about the GI50 (A549 NSCLC) of the same molecule?
The GI50 was 1680 nM.

What about the TGI (A549 NSCLC) of the same molecule?
The TGI was > 50 µM.

And the GI50 (ACHN renal)?
The GI50 was 1390 nM.

And the TGI (ACHN renal)?
The TGI was 4.26 µM.

What about the GI50 (BT-549 breast) of the same molecule?
The GI50 was 1660 nM.

What about the TGI (BT-549 breast) of the same molecule?
Its TGI is 6.77 µM.

And the GI50 (CAKI-1 renal)?
Its GI50 is 1020 nM.

And the TGI (CAKI-1 renal)?
Its TGI is 2990 nM.

What about the GI50 (CCRF-CEM leukemia) of the same molecule?
The GI50 was 1710 nM.

And the TGI (CCRF-CEM leukemia)?
The TGI was 24.5 µM.

What about the GI50 (COLO 205 colon) of the same molecule?
The GI50 was 5.91 µM.

And the TGI (COLO 205 colon)?
The TGI was 14.4 µM.

And the GI50 (DU-145 prostate)?
The GI50 was 2000 nM.

What about the TGI (DU-145 prostate) of the same molecule?
The TGI was > 50 µM.

What about the GI50 (EKVX NSCLC) of the same molecule?
Its GI50 is 1180 nM.

What about the TGI (EKVX NSCLC) of the same molecule?
The TGI was 4.64 µM.

And the GI50 (HCC-2998 colon)?
The GI50 was 1600 nM.

And the TGI (HCC-2998 colon)?
The TGI was 6.24 µM.

What about the GI50 (HCT-116 colon) of the same molecule?
The GI50 was 1550 nM.

What about the TGI (HCT-116 colon) of the same molecule?
Its TGI is 5.85 µM.

What about the GI50 (HCT-15 colon) of the same molecule?
The GI50 was 1530 nM.

And the TGI (HCT-15 colon)?
The TGI was 5.6 µM.

What about the GI50 (HL-60(TB) leukemia) of the same molecule?
Its GI50 is 1100 nM.

And the TGI (HL-60(TB) leukemia)?
Its TGI is 2890 nM.

What about the GI50 (HOP-62 NSCLC) of the same molecule?
Its GI50 is 1480 nM.

What about the TGI (HOP-62 NSCLC) of the same molecule?
Its TGI is 6.33 µM.

And the GI50 (HOP-92 NSCLC)?
The GI50 was 952 nM.

What about the TGI (HOP-92 NSCLC) of the same molecule?
Its TGI is 2780 nM.

What about the GI50 (HS 578T breast) of the same molecule?
Its GI50 is 1310 nM.

And the TGI (HS 578T breast)?
The TGI was 4.64 µM.

What about the GI50 (HT29 colon) of the same molecule?
The GI50 was 6.24 µM.

And the TGI (HT29 colon)?
Its TGI is > 50 µM.

And the GI50 (IGROV1 ovarian)?
The GI50 was 1490 nM.

What about the TGI (IGROV1 ovarian) of the same molecule?
Its TGI is 8.81 µM.

And the GI50 (K-562 leukemia)?
Its GI50 is 1630 nM.

And the TGI (K-562 leukemia)?
Its TGI is > 50 µM.

And the GI50 (KM12 colon)?
Its GI50 is 1610 nM.

And the TGI (KM12 colon)?
Its TGI is 5.46 µM.

And the GI50 (M14 melanoma)?
Its GI50 is 1710 nM.

And the TGI (M14 melanoma)?
The TGI was 8.41 µM.

What about the GI50 (MALME-3M melanoma) of the same molecule?
Its GI50 is 1160 nM.

What about the TGI (MALME-3M melanoma) of the same molecule?
The TGI was 3.26 µM.

What about the GI50 (MCF7 breast) of the same molecule?
Its GI50 is 1290 nM.

What about the TGI (MCF7 breast) of the same molecule?
The TGI was 4.79 µM.

And the GI50 (MDA-MB-231 breast)?
The GI50 was 1210 nM.

And the TGI (MDA-MB-231 breast)?
The TGI was 2970 nM.

What about the GI50 (MDA-MB-435) of the same molecule?
The GI50 was 1580 nM.

And the TGI (MDA-MB-435)?
The TGI was 5.34 µM.

And the GI50 (MOLT-4 leukemia)?
The GI50 was 1550 nM.

What about the TGI (MOLT-4 leukemia) of the same molecule?
The TGI was 6.89 µM.

What about the GI50 (NCI-H226 lung) of the same molecule?
Its GI50 is 1510 nM.

And the TGI (NCI-H226 lung)?
Its TGI is 5.58 µM.

What about the GI50 (NCI-H23 lung) of the same molecule?
Its GI50 is 1130 nM.

What about the TGI (NCI-H23 lung) of the same molecule?
Its TGI is 3.73 µM.

And the GI50 (NCI-H460 lung)?
The GI50 was 1530 nM.

What about the TGI (NCI-H460 lung) of the same molecule?
Its TGI is 5.77 µM.

What about the GI50 (NCI-H522 lung) of the same molecule?
The GI50 was 1420 nM.

What about the TGI (NCI-H522 lung) of the same molecule?
Its TGI is 6.02 µM.

And the GI50 (NCI/ADR-RES ovarian)?
Its GI50 is 1270 nM.

And the TGI (NCI/ADR-RES ovarian)?
The TGI was 3.96 µM.

And the GI50 (OVCAR-4 ovarian)?
Its GI50 is 1610 nM.

What about the TGI (OVCAR-4 ovarian) of the same molecule?
Its TGI is 40.1 µM.

What about the GI50 (OVCAR-5 ovarian) of the same molecule?
The GI50 was 1550 nM.

What about the TGI (OVCAR-5 ovarian) of the same molecule?
The TGI was > 50 µM.

And the GI50 (OVCAR-8 ovarian)?
The GI50 was 1720 nM.

What about the TGI (OVCAR-8 ovarian) of the same molecule?
Its TGI is > 50 µM.

And the GI50 (PC-3 prostate)?
Its GI50 is 1640 nM.

What about the TGI (PC-3 prostate) of the same molecule?
The TGI was 7.54 µM.

What about the GI50 (RPMI-8226 leukemia) of the same molecule?
The GI50 was 1030 nM.

What about the TGI (RPMI-8226 leukemia) of the same molecule?
The TGI was 3.13 µM.

What about the GI50 (RXF 393 renal) of the same molecule?
Its GI50 is 1280 nM.

And the TGI (RXF 393 renal)?
Its TGI is 3.93 µM.

What about the GI50 (SF-268 CNS) of the same molecule?
The GI50 was 1550 nM.

What about the TGI (SF-268 CNS) of the same molecule?
Its TGI is 12 µM.

And the GI50 (SF-295 CNS)?
The GI50 was 1230 nM.

What about the TGI (SF-295 CNS) of the same molecule?
Its TGI is 3.34 µM.

What about the GI50 (SF-539 CNS) of the same molecule?
Its GI50 is 1590 nM.

What about the TGI (SF-539 CNS) of the same molecule?
Its TGI is 6.45 µM.

And the GI50 (SK-MEL-2 melanoma)?
The GI50 was 1210 nM.

And the TGI (SK-MEL-2 melanoma)?
The TGI was 3.37 µM.

And the GI50 (SK-MEL-28 melanoma)?
The GI50 was 1730 nM.

What about the TGI (SK-MEL-28 melanoma) of the same molecule?
Its TGI is 7.48 µM.

And the GI50 (SK-OV-3 ovarian)?
The GI50 was 1310 nM.

What about the TGI (SK-OV-3 ovarian) of the same molecule?
The TGI was 3.97 µM.

And the GI50 (SN12C renal)?
The GI50 was 1350 nM.

And the TGI (SN12C renal)?
Its TGI is 4.15 µM.

And the GI50 (SNB-19 CNS)?
The GI50 was 1790 nM.

What about the TGI (SNB-19 CNS) of the same molecule?
The TGI was > 50 µM.

What about the GI50 (SNB-75 CNS) of the same molecule?
The GI50 was 906 nM.

What about the TGI (SNB-75 CNS) of the same molecule?
Its TGI is 2590 nM.

And the GI50 (SR leukemia)?
The GI50 was 1640 nM.

And the TGI (SR leukemia)?
The TGI was > 50 µM.

And the GI50 (SW-620 colon)?
Its GI50 is 1610 nM.

What about the TGI (SW-620 colon) of the same molecule?
The TGI was 6.47 µM.

What about the GI50 (T-47D breast) of the same molecule?
Its GI50 is 1300 nM.

What about the TGI (T-47D breast) of the same molecule?
The TGI was 4.13 µM.

And the GI50 (TK-10 renal)?
The GI50 was 2250 nM.

What about the TGI (TK-10 renal) of the same molecule?
The TGI was 12 µM.

What about the GI50 (U251 CNS) of the same molecule?
Its GI50 is 1700 nM.

What about the TGI (U251 CNS) of the same molecule?
Its TGI is > 50 µM.

What about the GI50 (UACC-257 melanoma) of the same molecule?
Its GI50 is 1210 nM.

And the TGI (UACC-257 melanoma)?
Its TGI is 3.87 µM.

And the GI50 (UACC-62 melanoma)?
The GI50 was 1200 nM.

What about the TGI (UACC-62 melanoma) of the same molecule?
Its TGI is 3.65 µM.

And the GI50 (UO-31 renal)?
Its GI50 is 1130 nM.

And the TGI (UO-31 renal)?
Its TGI is 4.92 µM.
